Legend:
fGPR120 = fGPR120 agonist mode / PAM mode assay in CHO/NatClytin/fGpr120+Gα16 cells, Fluo8-NW, FLIPR Tetra; assay type: cell-based, feline
Experimental: Methods: CHO cells that stably express fGPR120 were used to assay dodecyl dihydrogen phosphate for activity as an fGPR120 agonist or PAM.
CHO/NatClytin/fGpr120+Gα16 (fGpr120) cells and CHO/NatClytin/mock+Gα16 (mock) cells were seeded at 5,000 cells/well. 24 hours after cell seeding, cells were loaded with 0.5×Fluo8-NW dye in standard tyrode buffer (20 μl/well) for 1 h at room temperature. The ability of dodecyl dihydrogen phosphate to activate fGPR120 expressed by the CHO cells was determined by measuring fluorescence using a FLIPR® Tetra screening system after contacting the cells with the compound in agonist mode and PAM mode according to the following protocol: • 1. […] For mock controls, 0.2μ ATP was used as the agonist.
The maximum of ΔF/F values measured using the FLIPR® Tetra system were exported and used for data analysis.
The compounds used in the experiments were dissolved 6× in 0.01% BSA (fatty acid-free) and then pre-mixed on compound plates with buffer.
Controls for agonist mode experiments—dose response curves of α-linolenic acid (FIGS. 12A and 12B): 100 μM α-linolenic acid (fGpr120 max signal), 30 μM ATP (max signal), buffer (min signal), buffer+0.01% BSA (min signal).

[1] = system: CHO/NatClytin/mock+Gα16 (mock) cells; assay: Mock control of the agonist/PAM assay with ATP as agonist; assay type: cell-based; details: concentration used as min signal in PAM mode
Experimental: CHO/NatClytin/fGpr120+Gα16 (fGpr120) cells and CHO/NatClytin/mock+Gα16 (mock) cells were seeded at 5,000 cells/well. 24 hours after cell seeding, cells were loaded with 0.5×Fluo8-NW dye in standard tyrode buffer (20 μl/well) for 1 h at room temperature. The ability of dodecyl dihydrogen phosphate to activate fGPR120 expressed by the CHO cells was determined by measuring fluorescence using a FLIPR® Tetra screening system after contacting the cells with the compound in agonist mode and PAM mode according to the following protocol: • 1. […] PAM mode: injection of 3× dodecyl dihydrogen phosphate (10 μl/well), wherein fluorescence was measured for 3 min. After about 1 additional minute, injection of 3× fGPR120 agonist at a concentration corresponding to the agonist's EC20 (15 μl/well), wherein fluorescence (i.e., PAM activity) was measured for 3 min. The fGPR120 agonist was 1.5 μM α-linolenic acid. For mock controls, 0.2μ ATP was used as the agonist.
Controls for PAM mode experiments—dose response curves of α-linolenic acid (fGpr120) or ATP (mock) (FIGS. 12A and 12B): 100 μM α-linolenic acid (max signal for Gpr120), 1.5 μM α-linolenic acid (EC20, min signal for Gpr120), 30 μM ATP (max signal), 0.2 μM ATP (EC20, min signal).

## CCCCCCCCCCCCOP(=O)(O)O [dodecyl dihydrogen phosphate, Dodecyl dihydrogen phosphate]
fGPR120; PAM mode, in the presence of an fGPR120 agonist (1.5 μM α-linolenic acid, EC20)
  modulation of fGPR120 activity as positive allosteric modulator (PAM): modulated the activity of fGPR120 as a PAM

## Nc1ncnc2c1ncn2[C@@H]1O[C@H](COP(=O)(O)OP(=O)(O)OP(=O)(O)O)[C@@H](O)[C@H]1O [ATP]
[1]
  EC20 of ATP in mock cells: 200 nM

## CC/C=C\C/C=C\C/C=C\CCCCCCCC(=O)O [Compound 24, (9Z,12Z,15Z)-octadeca-9,12,15-trienoic acid]
fGPR120; fGpr120 cells, concentration used as min signal in PAM mode
  EC20 of the fGPR120 agonist: 1500 nM

— patent publication US12207673B2, “Compounds that modulate fatty acid receptor activity and pet food products containing the same” (MARS, INCORPORATED, priority 2014, dated 2025)
